Measurements taken from article PMC10253445, “Exploring the Potential of Sulfonamide-Dihydropyridine Hybrids as Multitargeted Ligands for Alzheimer’s Disease Treatment” (International Journal of Molecular Sciences, 2023).
Several values for one entry are separate records, joined by “and”; a condition that tells them apart may be missing. Equal entries are not always repeated. Entries after “also recorded” stand apart in the source; their conditions may differ.

Assays:
[1] = target: T1, EeAChE (Electrophorus electricus, UniProt O42275); assay: biochemical; conditions: for inhibition at 10 µM: read-out: EeAChE % inhibition at 10 μM (IC50 not given)
T1 construct: purified AChE from Electrophorus; purchased Sigma-Aldrich Type V-S; host or cells: natural enzyme purified from Electrophorus electricus

[2] = target: T2, eqBChE (Equus caballus, UniProt P81908); assay: biochemical; assay type: biochemical; conditions: for IC50: read-out: eqBChE IC50 ± SEM; for inhibition at 10 µM: read-out: eqBChE % inhibition at 10 μM (IC50 not given)
T2 construct: BuChE from horse serum; purchased Sigma-Aldrich; host or cells: horse serum

[3] = test system: calcium channel; assay: Calcium channel blockade, FLIPR calcium indicator 6 in SH-SY5Y cells; assay type: cell-based; conditions: KCl/CaCl2-induced calcium flux
Experimental: Assessment of calcium channel blockade of compounds 4a–i was performed according to the previously described protocol using the FLIPR calcium indicator 6 [59]. Briefly, FLIPR-loaded SH-SY5Y cells were exposed for 10 min to a 10 μm concentration of the tested compounds and to nimodipine used as a reference. 0.1% DMSO was used as a vehicle. […] Data were collected in three independent experiments with eight technical replicates per experiment. Outliers detected by the Grubbs test were excluded from further analysis.

[4] = test system: Nrf2-ARE; assay: Nrf2 transcriptional activation, Nrf2/ARE-luciferase reporter cells; assay type: cell-based; conditions: for CD (concentration required to double the specific luciferase reporter activity): 24 h treatment; for lowest concentration with significant induction of the Nrf2 transcriptional pathway: tested at 1, 5, 10, 25, 50 μM for 24 h
Experimental: The Nrf2-ARE activating effect of selected 4a, 4d and 4f was evaluated in vitro using a cell-based luciferase assay in the AREc32 cell line, tert-butylhydroquinone (TBHQ) being used as positive control.
Then, AREc32 cells were treated with increasing concentrations of each compound (1, 5, 10, 25, 50 μM) for 24 h, and luciferase activity was then measured.
The evaluation of Nrf2 transcriptional activation was then performed using non-cytotoxic concentrations of the tested compounds according to the protocol previously described. Briefly, the cells were seeded as described for the MTT assay, except that white 96-well culture plates were used. After 48 h of incubation, the cells were treated with the tested compounds or DMSO (0.1%). After 24 h of treatment, luciferase activity was measured using the Bright–Glo Luciferase Assay System (Promega, Madison, WI, USA) according to the manufacturer’s instructions. All reactions were performed in duplicate and repeated in at least four different cultures.

[5] = Oxygen radical absorbance capacity (ORAC) assay; conditions: Trolox Equivalents, mean (n = 3) ± SEM
Experimental: Briefly, in a black 96-well microplate (Nunc), fluorescein and the tested compound were incubated for 15 min at 37 °C. […] All reactions were performed in triplicate, and at least three different assays were performed for each sample.

[6] = test system: Nrf2-ARE; set-up: method as in PMID 27736061; conditions: cited from earlier work

T1 sequence (O42275 24-633): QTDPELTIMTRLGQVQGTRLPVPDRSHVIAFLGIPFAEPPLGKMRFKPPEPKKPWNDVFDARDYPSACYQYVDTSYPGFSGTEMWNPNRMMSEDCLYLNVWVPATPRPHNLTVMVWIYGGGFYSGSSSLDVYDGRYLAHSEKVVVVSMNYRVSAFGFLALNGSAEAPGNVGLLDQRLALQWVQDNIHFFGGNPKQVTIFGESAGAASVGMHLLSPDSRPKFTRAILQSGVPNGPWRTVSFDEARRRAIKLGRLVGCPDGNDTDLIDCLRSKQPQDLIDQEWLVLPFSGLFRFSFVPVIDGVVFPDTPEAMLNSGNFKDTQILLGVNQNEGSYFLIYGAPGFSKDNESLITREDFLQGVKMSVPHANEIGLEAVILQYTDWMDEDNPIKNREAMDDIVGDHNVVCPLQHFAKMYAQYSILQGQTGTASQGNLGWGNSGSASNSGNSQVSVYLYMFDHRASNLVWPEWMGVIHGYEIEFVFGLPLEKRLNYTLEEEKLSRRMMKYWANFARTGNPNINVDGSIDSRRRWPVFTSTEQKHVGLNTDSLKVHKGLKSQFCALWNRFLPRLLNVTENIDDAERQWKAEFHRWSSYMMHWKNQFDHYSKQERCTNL
T2 sequence (P81908 whole entry): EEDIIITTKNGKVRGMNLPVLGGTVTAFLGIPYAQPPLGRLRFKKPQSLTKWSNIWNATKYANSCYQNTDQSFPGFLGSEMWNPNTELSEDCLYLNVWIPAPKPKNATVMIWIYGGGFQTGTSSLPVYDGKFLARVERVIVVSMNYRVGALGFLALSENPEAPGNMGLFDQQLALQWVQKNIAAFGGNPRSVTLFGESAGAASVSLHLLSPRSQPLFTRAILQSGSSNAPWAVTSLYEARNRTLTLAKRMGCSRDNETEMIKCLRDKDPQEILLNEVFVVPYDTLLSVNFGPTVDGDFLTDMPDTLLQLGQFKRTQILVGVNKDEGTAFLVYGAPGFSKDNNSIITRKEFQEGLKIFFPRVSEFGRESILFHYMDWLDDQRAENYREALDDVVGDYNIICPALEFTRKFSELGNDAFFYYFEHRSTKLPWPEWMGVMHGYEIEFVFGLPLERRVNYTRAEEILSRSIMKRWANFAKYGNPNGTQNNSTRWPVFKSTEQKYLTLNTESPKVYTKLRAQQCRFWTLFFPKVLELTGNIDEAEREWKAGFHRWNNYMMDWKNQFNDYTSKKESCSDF

Compound	inhibition at 10 µM [1] [%]	Calcium Antagonism (% Inhibition at 10 μM) ± SEM [3] [%]	CD (concentration required to double the specific luciferase reporter activity) [4]	ORAC [5]	inhibition at 10 µM [2] [%]	also measured
COC(=O)C1=C(C)NC(C)=C(C(=O)OC)C1c1ccc(NS(=O)(=O)c2ccccc2)cc1 [Compound 4a, Dimethyl 2,6-Dimethyl-4-(4-(phenylsulfonamido)phenyl)-1,4-dihydropyridine-3,5-dicarboxylate]	< 50	32 ± 5.1	19.3 µM and 19.3 ± 6.7 µM	1.59 TE and 1.59 ± 0.2 TE		selectivity AChE vs BChE [2]: totally selective to BChE; also recorded: fully selective inhibition of BChE; IC50 [2]: 5 ± 0.4 µM; lowest concentration with significant induction of the Nrf2 transcriptional pathway [4]: 25 µM
COC(=O)C1=C(C)NC(C)=C(C(=O)OC)C1c1ccc(NS(=O)(=O)c2ccc(C)cc2)cc1 [Compound 4b, Dimethyl 2,6-Dimethyl-4-(4-((4-methylphenyl)sulfonamido)phenyl)-1,4-dihydropyridine-3,5-dicarboxylate]	< 50	37 ± 5.1		1.96 ± 0.1 TE	< 50	
COC(=O)C1=C(C)NC(C)=C(C(=O)OC)C1c1ccc(NS(C)(=O)=O)cc1 [Compound 4c, Dimethyl 2,6-Dimethyl-4-(4-(methylsulfonamido)phenyl)-1,4-dihydropyridine-3,5-dicarboxylate]	< 50			3.01 TE and 3.01 ± 0.1 TE	< 50	
CCOC(=O)C1=C(C)NC(C)=C(C(=O)OCC)C1c1ccc(NS(=O)(=O)c2ccccc2)cc1 [Compound 4d, Diethyl 2,6-Dimethyl-4-(4-(phenylsulfonamido)phenyl)-1,4-dihydropyridine-3,5-dicarboxylate]	< 50	22 ± 4.7	>50 µM	1.67 TE and 1.67 ± 0.0 TE		fold less active than tacrine on eqBChE [2]: 135 fold; selectivity AChE vs BChE [2]: totally selective to BChE; also recorded: fully selective inhibition of BChE; IC50 [2]: 0.3 ± 0.1 µM; Nrf2 transcriptional activation (luciferase activity) ([4]; 1-50 μM, 24 h): no significant activity
CCOC(=O)C1=C(C)NC(C)=C(C(=O)OCC)C1c1ccc(NS(=O)(=O)c2ccc(C)cc2)cc1 [Compound 4e, Diethyl 2,6-Dimethyl-4-(4-((4-methylphenyl)sulfonamido)phenyl)-1,4-dihydropyridine-3,5-dicarboxylate]	< 50	26 ± 4.1		2.07 ± 0.3 TE	< 50	
CCOC(=O)C1=C(C)NC(C)=C(C(=O)OCC)C1c1ccc(NS(C)(=O)=O)cc1 [Compound 4f, Diethyl 2,6-Dimethyl-4-(4-(methylsulfonamido)phenyl)-1,4-dihydropyridine-3,5-dicarboxylate]		27 ± 3.5	44.3 µM and 44.3 ± 4.7 µM	1.30 TE and 1.30 ± 0.1 TE		IC50 ([1]; read-out: EeAChE IC50 ± SEM): 12.6 ± 1.2 µM; IC50 [2]: 8.7 ± 0.6 µM; lowest concentration with significant induction of the Nrf2 transcriptional pathway [4]: 50 µM
CC1=C(C(=O)OC(C)C)C(c2ccc(NS(=O)(=O)c3ccccc3)cc2)C(C(=O)OC(C)C)=C(C)N1 [Compound 4g, Diisopropyl 2,6-Dimethyl-4-(4-(phenylsulfonamido)phenyl)-1,4-dihydropyridine-3,5-dicarboxylate]	< 50	50 ± 4.1		0.86 TE and 0.86 ± 0.1 TE	< 50	
CC1=C(C(=O)OC(C)C)C(c2ccc(NS(=O)(=O)c3ccc(C)cc3)cc2)C(C(=O)OC(C)C)=C(C)N1 [Compound 4h, Diisopropyl 2,6-Dimethyl-4-(4-((4-methylphenyl)sulfonamido)phenyl)-1,4-dihydropyridine-3,5-dicarboxylate]	< 50	51 ± 5.3		1.59 ± 0.1 TE	< 50	
CC1=C(C(=O)OC(C)C)C(c2ccc(NS(C)(=O)=O)cc2)C(C(=O)OC(C)C)=C(C)N1 [Compound 4i, Diisopropyl 2,6-Dimethyl-4-(4-(methylsulfonamido)phenyl)-1,4-dihydropyridine-3,5-dicarboxylate]	< 50	25 ± 5.1		1.11 ± 0.3 TE	< 50	
CC(C)(C)c1cc(O)ccc1O [TBHQ, tert-butylhydroquinone, reference compound]			1.2 µM and 1.2 ± 0.2 µM			
COc1ccc2[nH]cc(CCNC(C)=O)c2c1 [melatonin]						CD [6]: 60 µM
COCCOC(=O)C1=C(C)NC(C)=C(C(=O)OC(C)C)C1c1cccc([N+](=O)[O-])c1 (centres unmarked) [nimodipine, reference compound]		52 ± 4.1				
